PubChem BioAssay (NCI)
“And” between values parts separate entries of the source, which are not always exact repeats. Equal entries are not always repeated.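 In this assay, cells in 96-well plates receive the compound at five concentrations for 48 hours. Endpoints are linearly interpolated between the surrounding concentrations. GI50 is the concentration that inhibits growth by half. TGI: concentration producing complete growth inhibition.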

Columns and labels:
Assay in all cases: inhibition of tumour cell growth, NCI panel, 48 h
[1] = tested on: RXF 393 renal
[2] = tested on: HOP-92 NSCLC
[3] = tested on: NCI-H23 lung
[4] = tested on: U251 CNS
[5] = tested on: SF-539 CNS
[6] = tested on: UO-31 renal
[7] = tested on: 786-0 renal
[8] = tested on: UACC-62 melanoma
[9] = tested on: SNB-19 CNS
[10] = tested on: A498 renal

With `C=C(C)[C@@H]1CC[C@]2(C(=O)NCCNCCNCCN)CC[C@]3(C)[C@H](CC[C@@H]4[C@@]5(C)CCC(=O)C(C)(C)[C@@H]5CC[C@]43C)[C@@H]12` the GI50 [1] was 5.6 µM, the TGI [1] was 12.5 µM and the GI50 [2] was 2.93 µM. The TGI [2] was 10.3 µM, the GI50 [3] was 9.14 µM and the TGI [3] was 17.4 µM. For the same molecule, the GI50 [4] was 7.34 µM, the TGI [4] was 14.6 µM and the GI50 [5] was 7.53 µM. For the same molecule, the TGI [5] was 14.6 µM, the GI50 [6] was 6.85 µM and the TGI [6] was 14.5 µM. The GI50 [7] was 7.8 µM, the TGI [7] was 15.8 µM and the GI50 [8] was 8.96 µM. It also gave a TGI [8] of 19.1 µM, a GI50 [9] of 8.5 µM and a TGI [9] of 18.1 µM. For the same molecule, the GI50 [10] was 42.6 µM and the TGI [10] was > 50 µM.
With `COc1ccc(-n2c3c(c4c(CN(C)C)c(O)c(C)cc42)CCc2ccccc2C3=O)cc1` the GI50 [1] was 16.1 µM, the TGI [1] was 75.6 µM and the GI50 [2] was 41.9 µM. The TGI [2] was > 100 µM, the GI50 [3] was 14 µM and the TGI [3] was 69 µM. The GI50 [4] was 28.3 µM, the TGI [4] was > 100 µM and the GI50 [5] was 26.9 µM. The TGI [5] was > 100 µM, the GI50 [6] was 45.9 µM and the TGI [6] was > 100 µM. For the same molecule, the GI50 [7] was 29.7 µM, the TGI [7] was > 100 µM and the GI50 [8] was 30.6 µM. The TGI [8] was > 100 µM, the GI50 [9] was > 100 µM and the TGI [9] was > 100 µM. For the same molecule, the GI50 [10] was 60 µM and the TGI [10] was > 100 µM.
With `CC1=CC2CC(C)C1(C)CCc1ccoc12` (stereo not given) the TGI [1] was > 100 µM, the TGI [2] was > 100 µM and the TGI [3] was > 100 µM. For the same molecule, the TGI [4] was > 100 µM, the TGI [5] was > 100 µM and the TGI [6] was > 100 µM. The TGI [7] was > 100 µM, the TGI [8] was > 100 µM and the TGI [9] was > 100 µM. The TGI [10] was > 100 µM.
With `C[C@@H]1COC(Nc2ccc3ncnc(Nc4ccc(OCc5nccs5)c(Cl)c4)c3c2)=N1` the GI50 [1] was > 10 µM and 6.81 µM, the TGI [1] was > 10 µM and 20.7 µM and the GI50 [2] was 0.633 µM and 0.782 µM. The TGI [2] was 8.43 µM and 5.68 µM, the GI50 [3] was 8.41 µM and 8.45 µM and the TGI [3] was > 10 µM and 37 µM. The GI50 [4] was 9.24 µM and 8.55 µM, the TGI [4] was > 10 µM and 26.6 µM and the GI50 [5] was > 10 µM and 11.9 µM. The TGI [5] was > 10 µM and 29.1 µM, the GI50 [6] was 0.821 µM and 1.29 µM and the TGI [6] was > 10 µM and 13.5 µM. For the same molecule, the GI50 [7] was 8.31 µM and 7.15 µM, the TGI [7] was > 10 µM and 27.9 µM and the GI50 [8] was 6.14 µM and 3.39 µM. For the same molecule, the TGI [8] was > 10 µM and 14.9 µM, the GI50 [9] was > 10 µM and 12.4 µM and the TGI [9] was > 10 µM and 32.4 µM. The GI50 [10] was 3.02 µM and 0.342 µM and the TGI [10] was > 10 µM and 6.25 µM.
`Cc1cc2nc3c4cccc(O)c4n(CCN(C)C)c3nc2cc1C` showed a GI50 [1] of 2.48 µM, a TGI [1] of 8.98 µM and a GI50 [2] of 1.57 µM. The TGI [2] was 7.58 µM, the GI50 [3] was 3.07 µM and the TGI [3] was 16 µM. It also gave a GI50 [4] of 2.05 µM, a TGI [4] of 7.72 µM and a GI50 [5] of 1.51 µM. The TGI [5] was 3.23 µM, the GI50 [6] was 0.86 µM and the TGI [6] was 3.28 µM. The GI50 [7] was 3.88 µM, the TGI [7] was 21.1 µM and the GI50 [8] was 1.73 µM. For the same molecule, the TGI [8] was 3.73 µM, the GI50 [9] was 2.62 µM and the TGI [9] was 26.3 µM. For the same molecule, the GI50 [10] was 2.09 µM and the TGI [10] was 9.08 µM.
With `C=CCN(CC=C)CC(C(C)=O)C(c1ccccc1)c1c(O)c2ccccc2oc1=O` (stereo not given) the TGI [1] was > 100 µM, the TGI [2] was > 100 µM and the TGI [3] was > 100 µM. For the same molecule, the TGI [4] was > 100 µM, the TGI [5] was > 100 µM and the TGI [6] was > 100 µM. For the same molecule, the TGI [7] was > 100 µM, the TGI [8] was > 100 µM and the TGI [9] was > 100 µM. For the same molecule, the TGI [10] was > 100 µM.
`Cc1cc2c(cc1Br)C1(C)CCC(C)C1(C)O2` (stereo not given) gave a TGI [1] of 32.1 µM, a TGI [2] of 53.7 µM and a TGI [3] of 67.4 µM. The TGI [4] was 50.5 µM, the TGI [5] was > 100 µM and the TGI [6] was > 100 µM. The TGI [7] was 66.8 µM, the TGI [8] was > 100 µM and the TGI [9] was > 100 µM. For the same molecule, the TGI [10] was > 100 µM.
